Laboratory results published in patent US20240207269A1, “USES OF HETEROCYCLIC INHIBITORS OF ERK1/2” (Erasca, Inc., priority 2021, published 2024).

Assay: First-in-Human (FIH) Phase 1 study comparing QW and QD regimens
Format: in vivo
Conditions: QW preferred to QD
Description: Both QW and QD regimens were evaluated in the First-in-Human (FIH) Phase 1 study. […] The observed data in indicate that having an uninterrupted coverage over IC90 for 1-2 days can improve cancer cell killing and maintaining Ctrough below IC50 can help normal cell recovery and can improve tolerability.

Cc1cnc(NC2CCOCC2)nc1-n1cnc(C(=O)N[C@H](CN)c2cc(F)cc(Cl)c2)c1 [Compound 1, (S)—N-(2-amino-1-(3-chloro-5-fluorophenyl)ethyl)-1-(5-methyl-2-((tetrahydro-2H-pyran-4-yl)amino)pyrimidin-4-yl)-1H-imidazole-4-carboxamide]
Efficacy, QW regimen compared to QD regimen: better efficacy
Skin toxicities, QW regimen compared to QD regimen: less frequent skin toxicities
